According to patent US20240226115A1, “AXL INHIBITOR COMPOUNDS” (ARCUS BIOSCIENCES, INC., priority 2021, published 2024):

Target: T1, recombinant human MER (Homo sapiens, UniProt Q12866)
T1 construct: purchased Invitrogen
T1 sequence (Q12866 21-999): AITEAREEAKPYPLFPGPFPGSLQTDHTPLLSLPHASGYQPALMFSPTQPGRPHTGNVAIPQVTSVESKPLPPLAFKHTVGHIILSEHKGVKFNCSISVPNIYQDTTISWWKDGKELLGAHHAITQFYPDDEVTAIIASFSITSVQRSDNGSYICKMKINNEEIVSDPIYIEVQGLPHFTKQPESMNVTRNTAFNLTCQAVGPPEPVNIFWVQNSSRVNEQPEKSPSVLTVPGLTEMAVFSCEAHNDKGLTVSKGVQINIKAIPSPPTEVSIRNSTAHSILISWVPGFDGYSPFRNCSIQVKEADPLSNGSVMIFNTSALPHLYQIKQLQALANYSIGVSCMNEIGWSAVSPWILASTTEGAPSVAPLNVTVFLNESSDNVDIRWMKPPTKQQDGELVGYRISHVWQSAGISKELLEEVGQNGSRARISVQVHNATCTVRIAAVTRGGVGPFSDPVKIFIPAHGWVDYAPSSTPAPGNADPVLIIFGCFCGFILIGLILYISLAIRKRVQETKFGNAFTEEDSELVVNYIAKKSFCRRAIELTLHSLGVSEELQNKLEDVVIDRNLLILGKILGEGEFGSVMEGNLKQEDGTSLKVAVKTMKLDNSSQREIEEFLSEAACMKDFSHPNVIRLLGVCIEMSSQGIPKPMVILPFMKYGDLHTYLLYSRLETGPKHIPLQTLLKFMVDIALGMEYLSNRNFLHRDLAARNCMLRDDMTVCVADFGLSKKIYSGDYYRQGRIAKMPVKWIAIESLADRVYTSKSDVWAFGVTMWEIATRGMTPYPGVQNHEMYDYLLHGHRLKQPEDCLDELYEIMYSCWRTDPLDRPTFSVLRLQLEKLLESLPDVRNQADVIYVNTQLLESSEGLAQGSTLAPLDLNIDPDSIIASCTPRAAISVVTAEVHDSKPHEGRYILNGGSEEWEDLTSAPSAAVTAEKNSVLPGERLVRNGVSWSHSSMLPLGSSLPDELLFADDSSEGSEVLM
Assay: HTRF KinEASE-TK biochemical potency, MER
Conditions: 1 nM MER, 700 μM ATP
Protocol: Purified recombinant human AXL, TYRO3 and MER proteins were purchased from Invitrogen™. 10 nM AXL, 2 nM TYRO3 or MER were incubated with varying concentrations of compounds in 50 mM HEPES, pH 7.4, 10 mM MgCl2, 0.01% BSA, 1 mM DTT and 2% DMSO in a total volume of 20 μl in a 384-well microplate (Corning™ #3640) at RT for 1 h. The AXL, TYRO3 and MER enzymatic reaction was initiated by transferring 10 μl of enzyme and compound mixture into 10 μl of 1.6 μM TK Substrate-biotin (HTRF® KinEASE-TK kit, Cisbio) and 1400 μM ATP pre-incubated in 50 mM HEPES, pH 7.4, 10 mM MgCl2, 0.01% BSA, 1 mM DTT in a 384-well microplate (Corning™ #3640) at RT, giving the final reaction conditions: 5 nM AXL, 1 nM TYRO3 or MER, 800 nM TK Substrate-biotin and 700 μM ATP in 50 mM HEPES, pH 7.4, 10 mM MgCl2, 0.01% BSA, 1 mM DTT and 1% DMSO with varying concentrations of compounds. Following 2 h incubation at RT, the AXL, TYRO3 and MER enzymatic reaction was stopped by transfer of 10 μl of reaction into 10 μl of detection mix (400 nM Streptavidin-XL665, 200-fold dilution TK Antibody-Cryptate and detection buffer, HTRF® KinEASE-TK kit, Cisbio) in a white 384-well microplate (Perkin Elmer, OptiPlate 384). After 1 h incubation at RT, the plate was put into a plate reader (Evision) to read at 665/620 nm (acceptor/donor) for HTRF. The value of the DMSO blank (MIN inhibition=100% activity) was used as a negative control. The positive control was established by adding 5 μl of enzyme and DMSO mixture into 10 μl of detection mix followed by addition of 5 μl of TK Substrate-biotin and ATP mixture (MAX inhibition=0% activity). To calculate the percent activity, Equation 1 was used. Ratio665/620 is the value at a given compound concentration: […]

SMILES	IC50 [nM]
O=C1NCCOc2cc(-c3n[nH]c4ncc(-c5ccc6c(c5)CCN(C5COC5)CC6)cc34)ccc21 [Example 11, 8-(5-(3-(Oxetan-3-yl)-2,3,4,5-tetrahydro-1H-benzo[d]azepin-7-yl)-1H-pyrazolo[3,4-b]pyridin-3-yl)-3,4-dihydrobenzo[f][1,4]oxazepin-5(2H)-one]	< 100
O=C1NCCOc2cc(-c3n[nH]c4ncc(-c5ccc6c(c5)CCC(NC5CCCC5)CC6)cc34)ccc21 (stereo not shown) [Example 42, 8-{5-[7-(Cyclopentylamino)-6,7,8,9-tetrahydro-5H-benzo[7]annulen-2-yl]-1H-pyrazolo[3,4-b]pyridin-3-yl}-2,3,4,5-tetrahydro-1,4-benzoxazepin-5-one]	< 100
C[C@@H]1CCCN1C1CCc2ccc(-c3cnc4[nH]nc(-c5ccc6c(c5)C(=O)NC6(C)C)c4c3)cc2CC1 (stereo partly drawn) [Example 38, 3,3-Dimethyl-6-(5-{7-[(2R)-2-methylpyrrolidin-1-yl]-6,7,8,9-tetrahydro-5H-benzo[7]annulen-2-yl}-1H-pyrazolo[3,4-b]pyridin-3-yl)-2,3-dihydro-1H-isoindol-1-one]	100 to 1000
CC1(C)NS(=O)(=O)c2cc(-c3n[nH]c4ncc(-c5ccc6c(c5)CCC(N5CCC[C@@H]5CO)CC6)cc34)ccc21 (stereo partly drawn) [Example 34, 6-(5-{7-[(2R)-2-(Hydroxymethyl)pyrrolidin-1-yl]-6,7,8,9-tetrahydro-5H-benzo[7]annulen-2-yl}-1H-pyrazolo[3,4-b]pyridin-3-yl)-3,3-dimethyl-2,3-dihydro-1λ^6,2-benzothiazole-1,1-dione]	< 100
C[C@@H]1CCCN1C1CCc2ccc(-c3cnc4[nH]nc(-c5cc6c(cc5F)C(=O)NCCO6)c4c3)cc2CC1 (stereo partly drawn) [Example 61, 7-Fluoro-8-(5-{7-[(2R)-2-methylpyrrolidin-1-yl]-6,7,8,9-tetrahydro-5H-benzo[7]annulen-2-yl}-1H-pyrazolo[3,4-b]pyridin-3-yl)-2,3,4,5-tetrahydro-1,4-benzoxazepin-5-one]	100 to 1000
O=C1NCCOc2cc(-c3n[nH]c4ncc(-c5ccc6c(c5)CCC(N5CC[C@@H](O)C5)CC6)cc34)ccc21 (stereo partly drawn) [Example 51, 8-(5-(7-((R)-3-Hydroxypyrrolidin-1-yl)-6,7,8,9-tetrahydro-5H-benzo[7]annulen-2-yl)-1H-pyrazolo[3,4-b]pyridin-3-yl)-3,4-dihydrobenzo[f][1,4]oxazepin-5(2H)-one]	100 to 1000
C[C@@H]1CCCN1C1(C)CCc2ccc(-c3cnc4[nH]nc(-c5ccc6c(c5)OCCNC6=O)c4c3)cc2CC1 (stereo partly drawn) [Example 23, 8-(5-{7-Methyl-7-[(2R)-2-methylpyrrolidin-1-yl]-6,7,8,9-tetrahydro-5H-benzo[7]annulen-2-yl}-1H-pyrazolo[3,4-b]pyridin-3-yl)-2,3,4,5-tetrahydro-1,4-benzoxazepin-5-one]	< 100
O=C1NCCOc2cc(-c3n[nH]c4ncc(-c5ccc6c(c5)CCC(N5CCCC5)C6)cc34)ccc21 (stereo not shown) [Example 2, 8-{5-[6-(Pyrrolidin-1-yl)-5,6,7,8-tetrahydronaphthalen-2-yl]-1H-pyrazolo[3,4-b]pyridin-3-yl}-2,3,4,5-tetrahydro-1,4-benzoxazepin-5-one]	< 100
C[C@@H]1CCCN1C1CCc2ccc(-c3cnc4[nH]nc(-c5ccc6c(c5)OCCC6(C)O)c4c3)cc2CC1 (stereo partly drawn) [Example 29, 4-Methyl-7-(5-{7-[(2R)-2-Methylpyrrolidin-1-yl]-6,7,8,9-tetrahydro-5H-benzo[7]annulen-2-yl}-1H-pyrazolo[3,4-b]pyridin-3-yl)-3,4-dihydro-2H-1-benzopyran-4-ol]	100 to 1000
O=C1NCCOc2cc(-c3n[nH]c4ncc(-c5ccc6c(c5)CCN(C5CCCC5)C6)cc34)ccc21 [Example 9, 8-(5-(2-Cyclopentyl-1,2,3,4-tetrahydroisoquinolin-6-yl)-1H-pyrazolo[3,4-b]pyridin-3-yl)-3,4-dihydrobenzo[f][1,4]oxazepin-5(2H)-one]	< 100
O=C1NCCOc2cc(-c3n[nH]c4ncc(-c5ccc6c(c5)CC[C@H](N5CCCC5)CC6)cc34)ccc21 (single isomer, unassigned) [Example 56]	100 to 1000
C[C@@H]1CCCN1C1CCc2ccc(-c3cnc4[nH]nc(-c5cc(F)c6c(c5)OCCNC6=O)c4c3)cc2CC1 (stereo partly drawn) [Example 6, 6-Fluoro-8-(5-{7-[(2R)-2-methylpyrrolidin-1-yl]-6,7,8,9-tetrahydro-5H-benzo[7]annulen-2-yl}-1H-pyrazolo[3,4-b]pyridin-3-yl)-2,3,4,5-tetrahydro-1,4-benzoxazepin-5-one]	< 100
CC1(N2CCCC2)CCc2ccc(-c3cnc4[nH]nc(-c5ccc6c(c5)OCCNC6=O)c4c3)cc2CC1 (stereo not shown) [Example 22, 8-{5-[7-Methyl-7-(pyrrolidin-1-yl)-6,7,8,9-tetrahydro-5H-benzo[7]annulen-2-yl]-1H-pyrazolo[3,4-b]pyridin-3-yl}-2,3,4,5-tetrahydro-1,4-benzoxazepin-5-one]	< 100
O=C1NCCOc2cc(-c3n[nH]c4ncc(-c5ccc6c(c5)CCC(N[C@@H]5CCOC5)C6)cc34)ccc21 (stereo partly drawn) [Example 5, 8-[5-(6-{[(3R)—Oxolan-3-yl]amino}-5,6,7,8-tetrahydronaphthalen-2-yl)-1H-pyrazolo[3,4-b]pyridin-3-yl]-2,3,4,5-tetrahydro-1,4-benzoxazepin-5-one]	< 100
O=C1NCCOc2cc(-c3n[nH]c4ncc(-c5ccc6c(c5)CCC(N5CCOCC5)CC6)cc34)ccc21 (stereo not shown) [Example 47, 8-{5-[7-(Morpholin-4-yl)-6,7,8,9-tetrahydro-5H-benzo[7]annulen-2-yl]-1H-pyrazolo[3,4-b]pyridin-3-yl}-2,3,4,5-tetrahydro-1,4-benzoxazepin-5-one]	< 100
O=C1NCCOc2cc(-c3n[nH]c4ncc(-c5ccc6c(c5)CCNC6)cc34)ccc21 [Example 54, 8-(5-(1,2,3,4-Tetrahydroisoquinolin-6-yl)-1H-pyrazolo[3,4-b]pyridin-3-yl)-3,4-dihydrobenzo[f][1,4]oxazepin-5(2H)-one]	100 to 1000
C[C@@H]1CCCN1C1CCc2ccc(-c3cnc4[nH]nc(-c5ccc6c(c5)OCCNS6(=O)=O)c4c3)cc2CC1 (stereo partly drawn) [Example 66, 7-(5-{7-[(2R)-2-Methylpyrrolidin-1-yl]-6,7,8,9-tetrahydro-5H-benzo[7]annulen-2-yl}-1H-pyrazolo[3,4-b]pyridin-3-yl)-3,4-dihydro-2H-5,12,2-benzoxathiazepine-1,1-dione]	100 to 1000
C[C@@H]1CCCN1C1CCc2cc(-c3cnc4[nH]nc(-c5ccc6c(c5)OCCNC6=O)c4c3)cc(Cl)c2CC1 (stereo partly drawn) [Example 65, 8-(5-{4-Chloro-7-[(2R)-2-methylpyrrolidin-1-yl]-6,7,8,9-tetrahydro-5H-benzo[7]annulen-2-yl}-1H-pyrazolo[3,4-b]pyridin-3-yl)-2,3,4,5-tetrahydro-1,4-benzoxazepin-5-one]	< 100
O=C1NCCOc2cc(-c3n[nH]c4ncc(-c5ccc6c(c5)CCN(C5CCCC5)CC6)cc34)ccc21 [Example 7, 8-[5-(3-Cyclopentyl-2,3,4,5-tetrahydro-1H-3-benzazepin-7-yl)-1H-pyrazolo[3,4-b]pyridin-3-yl]-2,3,4,5-tetrahydro-1,4-benzoxazepin-5-one]	< 100
